Results reported in patent US10022420B2, “Methods of synthesizing γ-AApeptides, γ-AApeptide building blocks, γ-AApeptide libraries, and γ-AApeptide inhibitors of Aβ40 aggregates” (UNIVERSITY OF SOUTH FLORIDA, priority 2013, dated 2018).

Experiments:
N2a neuroblastoma cells = test: MTT toxicity assay: Aβ42 aggregates on N2a cells; assay type: cell-based; conditions: final Aβ 1 μM, 24 h
Procedure: FIG. 16 is a bar graph illustrating detoxification of Aβ42 aggregates by HW-155-1. N2a cells were cultured with 1 μM of pre-aggregated Aβ42 in the absence/presence of HW-155-1 for 24 h.
The effect of HW-155-1 on the toxicity of Aβ aggregates towards N2a neuroblastoma cells was then examined. […] In contrast, pre-incubation of 0.5 equiv. of HW-155-1 with Aβ42 reduces the death of N2a cells to 25%, while the presence of 1 equiv.
In siliconized tubes, Aβ42 peptide of 10 μM (in F-12 medium) were pre-incubated with 0, 0.5 and 1 equiv. HW-155-1 AApeptide, respectively. These solutions were incubated on rotating shaker (Barnstead 400100) at 8 rpm in 37° C. for 24 h. Meanwhile, N2a cells were plated in 96-well plates (10000 cells/well) with triple replications for 24 h. Then pre-aggregated mixtures were added into each well to make the final Aβ concentration at 1 μM. The plate was incubated for another 24 h. Next, 10 μL MTT reagent was added to the cells. The plate was incubated for 4 h at 37° C. After the addition of 100 μL solubilization solution and incubation overnight, OD values were read at 575 nm. The final cell viability was calculated as: Cell viability %=(OD575−OD blank)/(ODctrl−OD blank)×100%.

Aβ40 [1] = molecular target: T1, Aβ40 (Homo sapiens, UniProt P05067); test: Transmission electron microscopy (TEM) of Aβ40 fibrils; assay type: biochemical; conditions: HW-155-1 5 μM, 24 h
T1 construct: mouse 6e10 primary antibody which recognizes the first 16 amino acids of Aβ1-40
Procedure: FIGS. 15A-15D are TEM images illustrating monomeric Aβ40 in the absence (FIG. 15A) and presence (FIG. 15B) of HW-155-1 after 24 h and pre-aggregated Aβ40 in the absence (FIG. 15C) and presence (FIG. 15D) of HW-155-1 after 24 h. Bar=[…]; Aβ40 is 2.5 μM; and HW-155-1 is 5 μM. The ability of HW-155-1 to prevent Aβ aggregation was further confirmed by TEM (FIGS. 15A and 15B). In fact, HW-155-1 can even disassemble pre-formed Aβ fibrils (FIGS. 15C and 15D). In these experiments, the Aβ fibrils were not seen for 24 h after incubating HW-155-1 with Aβ40 monomers (prevention of aggregation) and pre-formed Aβ40 aggregates (disassembling aggregation). Aβ40 preparations were adsorbed onto 200-mesh copper grids for 1 hour (until it is dry), and then stained with 1% uranyl acetate for 20 sec. The excess fluid was removed and the grids were analyzed with FEI Morgagni 268D TEM operated at 60 kV.

Aβ40 [2] = molecular target: T1, Aβ40; test: Thioflavin T (ThT) assay of Aβ40 aggregation; assay type: biochemical
Procedure: Aggregation control (100%) is set as the change of fluorescence of 2.5 μM Aβ40 in Tris (pH 7.5) buffer. The concentration of ThT is 5 μM. Excitation: 440 nm; emission: 482 nm. These two sequences were investigated for their capability to inhibit the aggregation of Aβ40 by ThT assay. […] Compounds in different concentrations in Tris buffer Saline (TBS, pH 7.5) containing 10 μM ThT were added into a black 96 well plate corning@3721. Aβ40 monomer was freshly thawed and used to make a stock solution in TBS with a concentration of 5 μM. Equal volume of Aβ solution was added into the 96 well palate (final Aβ concentration was 2.5 μM). Time-dependent fluorescence change was monitored by a Synergy 2 plate reader at an excitation wavelength of 440 nm and emission at 482 nm. After 24 h, the fluorescence change was recorded. 100% aggregation is the fluorescence change of 2.5 μM Aβ40 in TBS buffer containing 5 μM ThT.

Aβ40 peptide = molecular target: T2, Aβ40 peptide (Homo sapiens, UniProt P05067); test: On-bead screening of OBOC γ-AApeptide library against Aβ40 peptide; assay type: binding; conditions: Aβ40 20 ug/mL, 6e10 antibody, anti-mouse IgG-dylight 549
T2 construct: mouse 6e10 primary antibody which recognizes the first 16 amino acids of Aβ1-40
Procedure: The γ-AApeptide library was screened to identify ligands that can bind to Aβ. The anti-aggregation efficiency of identified ligands was determined by functional assay afterwards. Thus, beads were incubated with the Aβ40 peptide, followed by the treatment of anti-Aβ antibody 6E10 (FIG. 10). Then, anti-mouse IgG-dylight 549 conjugate was added. Dylight 549 produces strong orange fluorescence, a region in which TentaGel beads have low background fluorescence (see Aquino, C. supra, 4, which is incorporated by reference herein regarding properties of TentaGel beads). The dye is also much less expensive than quantum dots. […]
In order to avoid any possible nonspecific binding, both the Aβ and antibodies solution were made in 1% BSA/TBST blocking buffer. […] The beads were washed with PBST completely and transferred into a 6-well plate to be observed under Zeiss inverted fluorescence microscope 10×43HE filter, and the orange bright beads were picked up for they had suspicious nonspecific binding.
The rest of the beads were pulled together, washed with PBST, and then treated with 1% SDS at 90° C. for ten minutes to remove any bound proteins. […] After washing and equilibrating in TBST overnight, the beads were ready for actual Aβ screening. […]
The beads were collected and washed with 1×PBST three times. […] Washed with water, DMSO, and acetonitrile, beads were then cleaved and analyzed using previous procedure. […]

T1 sequence (P05067 672-711 limits assumed): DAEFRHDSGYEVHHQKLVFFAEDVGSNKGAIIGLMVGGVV
T2 sequence (P05067 672-711 limits assumed): as above

Aβ fibrils by TEM, prevention of aggregation (Aβ40 [1]; Aβ40 monomers 2.5 μM): not seen
Aβ fibrils by TEM, disassembling aggregation (Aβ40 [1]; pre-formed Aβ40 aggregates 2.5 μM): not seen
inhibition at 1 µM (Aβ40 [2]; 1 μM compound, 2.5 μM Aβ40, first 2 h of incubation (FIG. 14B), read-out: inhibition of Aβ aggregation): ~50%
potency relative to KLVFF (Aβ40 [2]; ThT assay, Aβ40): at least 100 fold
on-bead binding to Aβ40 (screening outcome) (Aβ40 peptide): hit
Structure (SMILES): C=CCOC(=O)N(CC(=O)N[C@@H](Cc1ccccc1)CN(CC(=O)N[C@@H](CCCCN)CN(CC(=O)N[C@@H](CC(C)C)CN(CC(N)=O)C(=O)CC(C)C)C(=O)CC(C)C)C(=O)CCc1ccccc1)C[C@@H](N)CCCCN [HW-155-1]
death of N2a cells (N2a neuroblastoma cells; 0.5 equiv. compound pre-incubated with Aβ42, Aβ42 alone kills 30%): 25%
toxicity of Aβ42 / death of N2a cells (N2a neuroblastoma cells; 1 equiv. compound pre-incubated with Aβ42): almost completely removes the toxicity
